The nature of data set [1]: Oral exposure. Type of data set: in vivo. Particulars: compared with Example II107 in WO 03/015774.
Data set [2] has as its system Zucker obese fa/fa rats. In words: Oral Glucose Tolerance Test (OGTT). The format is in vivo, rat. The following applies: 10 mg/kg, given orally 120 minutes before glucose 2 g/kg; percent inhibition of blood glucose AUC vs vehicle. The protocol:
The animals were fasted for 2 hours before use for experiments. A test compound or a vehicle was given orally 120 minutes before oral administration of a glucose solution at a dose of 2 g/kg body weight. Blood glucose levels were measured using a Accucheck glucometer from tail bled samples taken at different time points before and after administration of glucose (time course of 60 minutes). […] Percent inhibition was determined using the AUC in the vehicle-control group as zero percent inhibition.

The target of data set [3] is T1, recombinant human pancreatic GLK (Homo sapiens, UniProt P35557).
T1 construct: 6-His (N); made in house; host or cells: E. coli BL21
T1 sequence (P35557 1-465): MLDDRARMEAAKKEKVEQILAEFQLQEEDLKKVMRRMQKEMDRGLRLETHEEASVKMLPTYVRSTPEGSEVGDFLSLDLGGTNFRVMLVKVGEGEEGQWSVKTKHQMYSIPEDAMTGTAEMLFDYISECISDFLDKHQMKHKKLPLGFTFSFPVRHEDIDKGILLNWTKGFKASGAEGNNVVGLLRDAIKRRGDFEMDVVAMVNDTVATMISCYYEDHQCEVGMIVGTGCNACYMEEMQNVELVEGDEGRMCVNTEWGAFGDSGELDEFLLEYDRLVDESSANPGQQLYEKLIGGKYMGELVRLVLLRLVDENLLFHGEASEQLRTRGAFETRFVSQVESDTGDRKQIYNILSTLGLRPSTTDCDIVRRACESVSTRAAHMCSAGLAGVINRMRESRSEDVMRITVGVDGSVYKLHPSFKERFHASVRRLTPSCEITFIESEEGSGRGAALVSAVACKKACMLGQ
The experiment in a line: Enzymatic activity of glucokinase (GLK activation, G-6-P dehydrogenase coupled, OD 340 nm). Type of data set: biochemical.

In the case of `COC[C@H](C)Oc1cc(Oc2ccc(S(C)(=O)=O)cc2)cc(C(=O)Nc2nccs2)c1` [Example 11b, 3-[(1S)-2-methoxy-(1-methylethyl)oxy]-5-[4-(methylsulfonyl)phenoxy]-N-1,3-thiazol-2-ylbenzamide], the oral exposure entry in data set [1] was “superior oral exposure”. Moreover, the OGTT activity in data set [2] is given as 29%. In addition, the “EC50 values, Example 11b compared with Example II107 in WO 03/015774” value in data set [3] (comparison in words) is “broadly similar”. Also, in data set [3] (read-out: activating activity for glucokinase, EC50), the concentration for a half-maximal effect (EC50) was found to be 30 nM.

By EC50 is commonly meant the concentration at which the effect is half-maximal.

Source of the values: patent publication US20080280872A1, “Benzamide Derivatives and Their Use as Glucokinase Activating Agents” (priority 2004, published 2008).
